In patent US7235580B2, “Mitotic kinesin inhibitors” (Merck & Co., Inc., priority 2002, dated 2007) one finds IC50 data, which are given here for 22 compounds.

pIC50: −log10 of the molar value. A value given as a limit tells only on which side of the number the result lay.

For the test, the target named is T1, human KSP motor domain (KSP(367H)) (Homo sapiens, UniProt P52732).
T1 construct: were used to amplify the motor domain and the neck linker region; made in house; host or cells: E. coli BL21 (DE3), pRSETa
T1 sequence (P52732 18-359 limits assumed): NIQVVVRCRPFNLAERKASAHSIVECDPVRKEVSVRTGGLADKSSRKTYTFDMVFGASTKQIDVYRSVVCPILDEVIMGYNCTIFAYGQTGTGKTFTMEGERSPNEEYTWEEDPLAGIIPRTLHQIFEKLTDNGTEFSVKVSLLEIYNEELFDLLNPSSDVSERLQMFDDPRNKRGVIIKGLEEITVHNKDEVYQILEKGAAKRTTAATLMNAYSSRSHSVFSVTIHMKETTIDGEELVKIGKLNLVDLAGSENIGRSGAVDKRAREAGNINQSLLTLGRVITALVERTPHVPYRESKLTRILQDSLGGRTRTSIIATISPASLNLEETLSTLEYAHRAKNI
Briefly: Kinesin ATPase In Vitro Assay. The class given is biochemical. The conditions noted are these: kinesin motor domain with microtubules, 1 mM ATP, 23° C.; free phosphate by quinaldine red/ammonium molybdate. The source says: I. Kinesin ATPase In Vitro Assay
Cloning and Expression of Human Poly-histidine Tagged KSP Motor Domain (KSP(367H))
Plasmids for the expression of the human KSP motor domain construct were cloned by PCR using a pBluescript full length human KSP construct (Blangy et al., Cell, vol. 83, pp 1159-1169, 1995) as a template. The N-terminal primer 5′-[…] (SEQ.ID.NO.: 1) and the C-terminal primer 5′-[…] […] (SEQ.ID.NO.: 2) were used to amplify the motor domain and the neck linker region. The PCR products were digested with AseI and XhoI, ligated into the NdeI/XhoI digestion product of pRSETa (Invitrogen) and transformed into E. coli BL21 (DE3).
Cells were grown at 37° C. to an OD600 of 0.5. After cooling the culture to room temperature expression of KSP was induced with 100 μM IPTG and incubation was continued overnight. Cells were pelleted by centrifugation and washed once with ice-cold PBS. Pellets were flash-frozen and stored −80° C.
Cell pellets were thawed on ice and resuspended in lysis buffer (50 mM K-HEPES, pH 8.0, 250 mM KCl, 0.1% Tween, 10 mM imidazole, 0.5 mM Mg-ATP, 1 mM PMSF, 2 mM benzimidine, 1× complete protease inhibitor cocktail (Roche)). Cell suspensions were incubated with 1 mg/ml lysozyme and 5 mM β-mercaptoethanol on ice for 10 minutes, followed by sonication (3×30 sec). All subsequent procedures were performed at 4° C. Lysates were centrifuged at 40,000×g for 40 minutes. Supernatants were diluted and loaded onto an SP Sepharose column (Pharmacia, 5 ml cartridge) in buffer A (50 mM K-HEPES, pH 6.8, 1 mM MgCl2, 1 mM EGTA, 10 μM Mg-ATP, 1 mM DTT) and eluted with a 0 to 750 mM KCl gradient in buffer A. Fractions containing KSP were pooled and incubated with Ni-NTA resin (Qiagen) for one hour. The resin was washed three times with buffer B (Lysis buffer minus PMSP and protease inhibitor cocktail), followed by three 15-minute incubations and washes with buffer B. Finally, the resin was incubated and washed for 15 minutes three times with buffer C (same as buffer B except for pH 6.0) and poured into a column. KSP was eluted with elution buffer (identical to buffer B except for 150 mM KCl and 250 mM imidazole). KSP-containing fractions were pooled, made 10% in sucrose, and stored at −80° C.
Microtubules are prepared from tubulin isolated from bovine brain. Purified tubulin (>97% MAP-free) at 1 mg/ml is polymerized at 37° C. in the presence of 10 μM paclitaxel, 1 mM DTT, 1 mM GTP in BRB80 buffer (80 mM K-PIPES, 1 mM EGTA, 1 mM MgCl2 at pH 6.8). The resulting microtubules are separated from non-polymerized tubulin by ultracentrifugation and removal of the supernatant. The pellet, containing the microtubules, is gently resuspended in 10 μM paclitaxel, 1 mM DTT, 50 μg/ml ampicillin, and 5 μg/ml chloramphenicol in BRB80.
The kinesin motor domain is incubated with microtubules, 1 mM ATP (1:1 MgCl2: Na-ATP), and compound at 23° C. in buffer containing 80 mM K-HEPES (pH 7.0), 1 mM EGTA, 1 mM DTT, 1 mM MgCl2, and 50 mM KCl. The reaction is terminated by a 2-10 fold dilution with a final buffer composition of 80 mM HEPES and 50 mM EDTA. Free phosphate from the ATP hydrolysis reaction is measured via a quinaldine red/ammonium molybdate assay by adding 150 μl of quench C buffer containing a 2:1 ratio of quench A:quench B. Quench A contains 0.1 mg/ml quinaldine red and 0.14% polyvinyl alcohol; quench B contains 12.3 mM ammonium molybdate tetrahydrate in 1.15 M sulfuric acid. The reaction is incubated for 10 minutes at 23° C., and the absorbance of the phospho-molybdate complex is measured at 540 nm.
The pIC50 is the negative decadic logarithm of the IC50, by convention in mol/L. A lower pIC50 goes with a high IC50. As to `COCC1(c2ccccc2)C=C(c2cc(F)ccc2F)CN1C(=O)N(C)C1CCN(C)CC1` (stereo not shown) [Compound 18-2, 4-(2,5-difluorophenyl)-2-(methoxymethyl)-N-methyl-N-(1-methylpiperidin-4-yl)-2-phenyl-2,5-dihydro-1H-pyrrole-1-carboxamide], the pIC50 was ≥ 4.30.
Take `CN(C)CC(=O)N1CCC(N(C)C(=O)N2CC(c3cc(F)ccc3F)=CC2(CO)c2ccccc2)CC1` (stereo not shown) [Compound 7-3, 4-(2,5-difluorophenyl)-N-[1-(N,N-dimethylglycyl)piperidin-4-yl]-2-(hydroxymethyl)-N-methyl-2-phenyl-2,5-dihydro-1H-pyrrole-1-carboxamide]: the negative-log IC50 (pIC50) was ≥ 4.30.
With `CN(C)C(=O)N1CC(c2cc(F)ccc2F)=CC1(CO)c1ccccc1` (stereo not shown) [Compound 1-9, 4-(2,5-Difluorophenyl)-2-(hydroxymethyl)-N,N-dimethyl-2-phenyl-2,5-dihydro-1H-pyrrole-1-carboxamide] the figure was ≥ 4.30.
The value for `CN(C(=O)N1CC(c2cc(F)ccc2F)=CC1(CO)c1ccccc1)C1CCN(C(CF)CF)CC1` (stereo not shown) [Compound 14-1] was ≥ 4.30; that for `CN(C)CCCC1(c2ccccc2)C=C(c2cc(F)ccc2F)CN1C(=O)C(C)(C)O` (stereo not shown) [Compound 29-3, 1-{4-(2,5-difluorophenyl)-2-[3-(dimethylamino)propyl]-2-phenyl-2,5-dihydro-1-pyrrol-1-yl}-2-methyl-1-oxopropan-2-ol] was ≥ 4.30.
Consider `CN(C)C(=O)N1CC(c2cc(F)ccc2F)=C[C@@]1(CCC(N)C(F)F)c1ccccc1` (stereo partly drawn) [Compound 31-3, (2S)-2-(3-amino-4,4-difluorobutyl)-4-(2,5-difluorophenyl)-N,N-dimethyl-2-phenyl-2,5-dihydro-1H-pyrrole-1-carboxamide], for which the pIC50 was ≥ 4.30.
For the compound `CN(C)C(=O)N1CC(c2cc(Cl)ccc2F)=CC1(CCCNS(C)(=O)=O)c1ccccc1` (stereo not shown) [Compound 21-1, 4-(5-chloro-2-fluorophenyl)-N,N-dimethyl-2-{3-[(methylsulfonyl)amino]propyl}-2-phenyl-2,5-dihydro-1H-pyrrole-1-carboxamide], the negative logarithm of the IC50 (pIC50) is ≥ 4.30.
Regarding `CN(C)CCCC1(c2ccccc2)C=C(c2cc(F)ccc2F)CN1C(=O)N(C)C` (stereo not shown) [Compound 4-4, 4-(2,5-Difluorophenyl)-2-[3-(dimethylamino)propyl]-N,N-dimethyl-2-phenyl-2,5-dihydro-1H-pyrrole-1-carboxamide], the pIC50 is ≥ 4.30.
With `CN(C)C(=O)N1CC(c2cc(F)ccc2F)=CC1(CCC(=O)NN)c1ccccc1` (stereo not shown) [Compound 25-1, 4-(2,5-difluorophenyl)-2-(3-hydrazino-3-oxopropyl)-N,N-dimethyl-2-phenyl-2,5-hydro-1H-pyrrole-1-carboxamide], the pIC50 is ≥ 4.30.
Take `CN(C)C(=O)N1CC(c2cc(F)ccc2F)=CC1(COCCO)c1ccccc1` (stereo not shown) [Compound 2-2, 4-(2,5-Difluorophenyl)-2-[(2-hydroxyethoxy)methyl]-N,N-dimethyl-2-phenyl-2,5-dihydro-1H-pyrrole-1-carboxamide]: the pIC50 is ≥ 4.30.
Turning to `CN1CCC(N(C)C(=O)N2CC(c3cc(F)ccc3F)=C[C@@]2(CO)c2ccccc2)CC1` (stereo in doubt) [Compound 1-10, 4-(2,5-Difluorophenyl)-2-(hydroxymethyl)-N-methyl-N-(1-methylpiperidin-4-yl)-2-phenyl-2,5-dihydro-1H-pyrrole-1-carboxamide], the negative-log IC50 (pIC50) is ≥ 4.30.
With `CN(C(=O)N1CC(c2cc(F)ccc2F)=CC1(CO)c1ccccc1)C1CCN(CC(F)F)CC1` (stereo not shown) [Compound 10-1, N-[1-(2,2-difluoroethyl)piperidin-4-yl]-4-(2,5-difluorophenyl)-2-(hydroxymethyl)-N-methyl-2-phenyl-2,5-dihydro-1H-pyrrole-1-carboxamide] the figure was ≥ 4.30; with `COC(=O)NCCCC1(c2ccccc2)C=C(c2cc(Cl)ccc2F)CN1C(=O)N(C)C` (stereo not shown) [Compound 22-1, methyl 3-{4-(5-chloro-2-fluorophenyl)-1-[(dimethylamino)carbonyl]-2-phenyl-2,5-dihydro-1H-pyrrol-2-yl}propylcarbamate], ≥ 4.30; with `CN(C)C(=O)N1CC(c2cc(F)ccc2F)=CC1(CCCN)c1ccccc1` (stereo not shown) [Compound 4-3, 2-(3-Aminopropyl)-4-(2,5-difluorophenyl)-N,N-dimethyl-2-phenyl-2,5-dihydro-1H-pyrrole-1-carboxamide], ≥ 4.30.
For the compound `CN(C)CCNCC1(c2ccccc2)C=C(c2cc(F)ccc2F)CN1C(=O)N(C)C` (stereo not shown) [Compound 3-2, 4-(2,5-Difluorophenyl)-2-({[2-(dimethylamino)ethyl]amino}methyl)-N,N-dimethyl-2-phenyl-2,5-dihydro-1H-pyrrole-1-carboxamide], the pIC50 was ≥ 4.30.
The value for `CN(C)C(=O)N1CC(c2cc(F)ccc2F)=CC1(COCCN)c1ccccc1` (stereo not shown) [Compound 2-3, 2-[(2-Aminoethoxy)methyl]-4-(2,5-difluorophenyl)-N,N-dimethyl-2-phenyl-2,5-dihydro-1H-pyrrole-1-carboxamide] was ≥ 4.30.
With `CN(C(=O)N1CC(c2cc(F)ccc2F)=CC1(CO)c1ccccc1)C1CCN(CS(C)(=O)=O)CC1` (stereo not shown) [Compound 13-1, 4-(2,5-difluorophenyl)-2-(hydroxymethyl)-N-methyl-N-{1-[(methylsulfonyl)methyl]piperidin-4-yl}-2-phenyl-2,5-dihydro-1H-pyrrole-1-carboxamide] the figure was ≥ 4.30.
With `CN(C(=O)N1CC(c2cc(F)ccc2F)=C[C@@]1(CO)c1ccccc1)C1CCN(CCF)CC1` [Compound 12-1, (2S)-4-(2,5-difluorophenyl)-N-[1-(2-fluoroethyl)piperidin-4-yl]-2-(hydroxymethyl)-N-methyl-2-phenyl-2,5-dihydro-1H-pyrrole-1-carboxamide] the figure was ≥ 4.30; with `CN(C(=O)N1CC(c2cc(F)ccc2F)=CC1(CO[Si](C)(C)C(C)(C)C)c1ccccc1)C1CCN(CC(=O)OCc2ccccc2)CC1` (stereo not shown) [Compound 16-1], ≥ 4.30.
Take `CN(C(=O)N1CC(c2cc(F)ccc2F)=CC1(CO)c1ccccc1)C1CCN(CCO)CC1` (stereo not shown) [Compound 11-1, 4-(2,5-difluorophenyl)-N-[1-(2-hydroxyethyl)piperidin-4-yl]-2-(hydroxymethyl)-N-methyl-2-phenyl-2,5-dihydro-1H-pyrrole-1-carboxamide]: the negative logarithm of the IC50 (pIC50) is ≥ 4.30.
`CN(C(=O)N1CC(c2cc(F)ccc2F)=C[C@@]1(CO)c1ccccc1)C1CCN(C2CC2)CC1` [Compound 15-1, (2S)-N-(1-cyclopropylpiperidin-4-yl)-4-(2,5-difluorophenyl)-2-(hydroxymethyl)-N-methyl-2-phenyl-2,5-dihydro-1H-pyrrole-1-carboxamide]: the negative logarithm of the IC50 (pIC50) is ≥ 4.30.
For the compound `CN(C)C(=O)N1CC(c2cc(F)ccc2F)=CC1(CCCO)c1ccccc1` (stereo not shown) [Compound 4-1a, 2-(3-Hydroxypropyl)-4-(2,5-difluorophenyl)-N,N-dimethyl-2-phenyl-2,5-dihydro-1H-pyrrole-1-carboxamide], the pIC50 was ≥ 4.30.
